Entries after “also recorded” stand apart in the source; their conditions may differ.
Assays:
[1] = test system: MHC-I (H2kb) on B16 cells; assay: Flow cytometry of membrane MHC-I (H2kb) expression; format: cell-based, murine; conditions: inosine at 500
Procedure: B16 cells were stained for flow cytometry to determine the membrane MHC-I expression level.
For MHC-I expression flow analysis on the tumor cell, one million cells per condition were stained with the PE anti-mouse H-2Kb antibody (Biolegend) diluted in PBS plus 2% FBS and kept for 30 min on ice. Matched isotype control Ab was performed as a control.

[2] = test system: H2k1, H2d1, Stat1, Stat3, Irf1 mRNA in B16 cells; assay: Reverse transcription quantitative PCR of antigen presentation-related and IFN signaling genes; format: cell-based, murine; conditions: inosine at 500
Procedure: Tumor cells cDNA was prepared using 1 μg RNA with the qScript cDNA Synthesis Kit (Bio-Rad). SYBR green-based qPCR was performed using murine primers to H2k1, H2d1, Stat1, Stat3, and Irf1. Relative copy number was determined by calculating the fold-change difference in the gene of interest relative to 18sRNA (ΔCt=Ct gene of interest−Ct 18sRNA) and reported as relative mRNA expression (ΔΔCt=2^−(ΔCt sample−ΔCt control)) or fold change. qPCR was performed on an Applied Biosystems 7300 machine.

[3] = test system: CD4+ and CD8+ T cells in B16 tumors; assay: Flow cytometry of tumor-infiltrating T lymphocytes in B16 tumors; format: in vivo, C57BL/6 mice; conditions: n=5 tumors
Procedure: Tumors from the indicated treatment group were mechanically minced for the isolation of infiltrating lymphocytes. Cells were counted and stained for flow cytometry to determine the percentage of CD4^+ and CD8^+ T lymphocytes in total CD45^+ immune cells.
Results are shown as mean±SEM (* P<0.05; ** P<0.01) and statistics were calculated using the unpaired t-test with Welch's correction.
Mouse tumor samples were minced with scissors before incubation with dissociation buffer (2 mg/ml collagenase type A, 0.02 mg/ml DNase in RPMI1640 containing 5% FBS, PenStrep) with agitation at 37° C. for 45 min. Tumor samples were homogenized by repeated pipetting and filtered through a 70-μm nylon filter (BD Biosciences) in RPMI supplemented with 10% FBS to generate single-cell suspensions. Cell suspensions were washed once with complete RPMI. After lysis of red blood cells, single-cell suspensions were blocked with anti-CD16/32 (Biolegend) for 20 min on ice and then incubated with appropriate antibodies for 30 min on ice: anti-CD45-APC-Cy7, CD3-FITC, CD8-PercP-Cy5.5, CD4-PE. Dead cells and doublets were excluded on the basis of forward and side scatter and Fixable Viability Dye eFluor 450 (eBioscience). Flow cytometry was performed on FACSCanto II (BD Biosciences), and data were analyzed using FlowJo (TreeStar).

[4] = background; cited from earlier work
[5] = test system: B16 tumor cells; assay: Cell apoptosis assay (Annexin V / 7-AAD flow cytometry); format: cell-based, murine; conditions: B16 cells in vitro; inosine same concentrations as FIG. 2A; 48 h
Procedure: Tumor cells were seeded in a 6-well plate and grown for 24 h. Cells were then treated with control (vehicle) or 1, 10, 50, 100 μM inosine. After 48 h of treatment, cells were harvested by trypsinization, resuspended at 10^6 cells/ml in 1× Annexin V Binding Buffer (BD Biosciences), and 100 μl (10^5 cells) were added to each FACS tube. Cells were stained with 7-AAD (5 μl/100 μl, BD Biosciences, to assess cell death), and APC-conjugated Annexin V (5 μl/100 μl, BD Biosciences, to assess apoptosis) for 30 min and analyzed by BD FACSCanto II. FACS data were acquired using FACSDiva (BD Biosciences) and analyzed using FlowJo software (Tree Star) and the percentage of APC^+ cells obtained.

[6] = test system: B16 tumor cells; assay: MTT cell proliferation assay; format: cell-based, murine; conditions: B16 cells in vitro; inosine 10, 50, 200 μM; 0-96 h
Procedure: MTT assays were used to determine the cell viability of B16 tumor cells treated with control vehicle; the concentration of inosine administered is indicated, where “Ino-10” means 10 μM Inosine; “Ino-50” means 50 μM Inosine and “Ino-200” means 200 μM Inosine.
Cell proliferation ability was examined at 0, 24, 48, 72 h and 96 h using a Cell Proliferation Reagent Kit I (MTT; Sigma) according to the manufacturer's instruction. Cells were seeded in a 96-well plate in triplicate at a concentration of 2×10^3 cells/well. On the indicated day, the medium was removed and the MTT solution was added to the wells. Four hours later, DMSO was added and the cells were further incubated for 10 min with gentle shaking at 37° C. Finally, the optical density of each well was measured using a microplate reader at 550 nm.

[7] = test system: B16 tumors; assay: B16 melanoma tumor model in mice (tumor volume, survival); conditions: B16 tumor-bearing C57BL/6 mice; inosine 400 mg/kg/day oral from day 4; anti-CTLA4 100 μg + anti-PD-1 200 μg i.p. days 7, 10, 13, 16
Procedure: B16 cells were injected subcutaneously into eight-week-old female C57BL/6 mice (2×10^5/mouse). Anti-CTLA4 antibody (100 μg per mouse) and anti-PD-1 antibody (200 μg per mouse) were injected i.p on days 7, 10, 13 and 16. 400 mg/kg body weight of inosine per day was orally administered to mice from day 4.
(§1) All the cell lines were confirmed to be mycoplasma free. Cells were cultured using DMEM (Corning) with 10% fetal bovine serum (Corning) and 1% Pen/Strep (Life Technologies). Cells were incubated in an incubator maintained at 37° C. and 5% CO2. 75-80% of confluent cells were harvested for orthotopic injection.
(§2) For the melanoma model, 2×10^5 B16 or B16-GM cells were harvested for orthotopic injection into the subcutaneous (s.c.) of C57BL/6J mice (6-8 weeks) using 0.25% Trypsin (Corning) and suspended in DPBS (Gibco).
(§3) Treatments were given as single agents or in combination with the following regimen. Inosine (Sigma-Aldrich) was dissolved in sterilized water to yield a concentration of 40 mg/ml, and administered by oral gavage once a day at 400 mg/kg body weight. Treatment was initiated on day 4 and ended on day 21 post tumor implant. Control groups received vehicle (water) by oral gavage. […] Tumors were measured every third day with a caliper, and measurements were assessed manually by assessing the longest dimension (length) and the longest perpendicular dimension (width). […]

[8] = test system: B16-GM tumors; assay: B16-GM metastatic melanoma tumor model in mice (tumor volume, weight, lung metastasis, survival)
Procedure: B16-GM cells were injected subcutaneously into eight-week-old female C57BL/6 mice (2×10^5/mouse). Anti-CTLA4 antibody (100 μg per mouse) and anti-PD-1 antibody (200 μg per mouse) were injected i.p on days 7, 10, 13 and 16. 400 mg/kg of inosine per day was orally administered to mice from day 4 to day 21.
as §1, §2, §3

[9] = test system: 4T1 tumors; assay: 4T1 breast cancer tumor model in mice (tumor volume, weight); format: in vivo; conditions: 4T1 tumor-bearing Balb/c mice; inosine 400 mg/kg/day oral day 4 to 21; anti-CTLA4 100 μg + anti-PD-1 200 μg i.p. days 7, 10, 13, 16
Procedure: 4T1 cells were injected into the mammary fat pad of eight-week-old female Balb/c mice (2×10^5/mouse). […] Results are shown as mean±SEM. (*** indicates P<0.001).
4T1 cells were injected into the mammary fat pad of eight-week-old female Balb/c mice (2×10^5/mouse). […] Results are shown as mean±SEM. (** indicates P<0.01)

OC[C@H]1O[C@@H](n2cnc3c(O)ncnc32)[C@H](O)[C@@H]1O [inosine, 9-[(2R,3R,4S,5R)-3,4-dihydroxy-5-(hydroxymethyl)oxolan-2-yl]-1H-purin-6-one]
membrane MHC-I (H2kb) expression [1]: enhances the expression of MHC-I; also recorded: increases the membrane protein level of MHC-I
relative mRNA expression of antigen presentation-related genes (H2k1, H2d1) and IFN signaling genes (Stat1, Stat3, Irf1) [2]: stimulates interferon signaling and antigen presentation-related genes; also recorded: increases the expression of antigen presentation-related genes and IFN signaling genes
CD8+ T cell population in tumors [3]: increased the cytotoxic CD8^+ T infiltration
half-life [4]: approximately 15 h
apoptotic tumor cells [5]: didn't inhibit tumor cell proliferation and promote apoptosis; also recorded: doesn't induce the apoptosis
proliferation / cell viability (MTT) [6]: didn't inhibit tumor cell proliferation; also recorded: doesn't inhibit the proliferation
tumor volume / tumor growth [7]: inhibited tumor growth in vivo; also recorded: enhanced the antitumor efficacy of ICB
tumor volume / tumor growth ([8]; B16-GM tumor-bearing C57BL/6 mice, inosine 400 mg/kg/day oral day 4 to 21, anti-CTLA4 100 μg + anti-PD-1 200 μg i.p. days 7, 10, 13, 16): reduced tumor size
lung metastasis (metastatic nodules) ([8]; B16-GM tumor-bearing mice, day 18): significant reduction in lung metastasis
tumor volume / tumor growth [9]: does not significantly affect tumor growth

Source: patent US10736913B1, “Use of inosine for cancer immunotherapy” (IMMUNOSPARKLE BIOSCIENCE LLC, priority 2019, dated 2020)
